Consider 4 compounds from patent US20030229145A1, “Pain treatment methods and compositions” (GRUENENTHAL GMBH, priority 2000, published 2003).

In one experiment the test system is AMPA receptor. Kind of experiment: Affinity for the AMPA receptor. In kind it is binding.
Experiment [1] concerns AMPA response of spinal neurons in the dorsal horn. Description: Microiontophoresis on anaesthetized rats (evoked potentials of dorsal horn cells after application of excitatory amino acids). The following applies: for ED50: Rattus norvegicus, Neuron, read-out: ED50 of inhibition of the AMPA response; for Inhibition of the AMPA response of spinal neurons (in words): microiontophoretic NMDA, kainate. The experiment is classed as in vivo. The method, then:
(derivation of evoked ascending potentials of individual cells in the dorsal horn of the spinal cord of anaesthetized rats after microiontophoretic application of excitatory amino acids (EAAs))
Male rats (Sprague Dawley, Janvier) with a body weight of from 280 g to 350 g were used. To induce the anaesthesia, inhalation anaesthetization was carried out with 4.0-5.0% halothane in a mixture of 200 ml/min oxygen (O2) and 400 ml/min dinitrogen monoxide (N2O) in a plexiglas anaesthetization box. During the preparatory phase, the halothane concentration was reduced to 1.0-1.5%. For the rest of the experiment, the inhalation anaesthetization was then replaced by bolus application of 40 mg/kg of chloralose in 3.5% Haemaccel solution (i.v.) and maintained by continuous infusion of 20 mg/kg/2.0 ml/h of chloralose. After the induction anaesthetization (4.0-5.0% halothane, see above), the tracheal tube was fitted through a syringe cylinder (20 ml Omnifix, Luer) shortened to about 20 mm, which was placed over the mouth and nose of the animals, with a 2.5% halothane concentration. The halothane concentration was then reduced to about 1.5%. Exhaled air was extracted through a closed system. For the application of test substances, a PE-20 (1.09*0.38mm) catheter was fitted into the dorsal branch of the left V. jugularis. A PE-50 tube (0.9569 mm*0.58 mm) was inserted into the left arteria carotis as a catheter for continuously monitoring the blood pressure. For the laminectomy, the animals were then placed in the prone position. An incision was made along the midline from the nape of the neck to the pelvic region. A blood-pressure drop frequently observed following this was treated by local application of lidocaine HCl with adrenaline (xylocitin 2% with adrenaline 0.001%, Jenapharm). The superficial tissue layers on both sides of the spinal column were removed in the vicinity of the vertebral bodies from sacral 2 (S2) to thoracic 8 (Th8). The musculature associated with the vertebral bodies was also removed by careful scraping with a scalpel. The actual laminectomy begins at vertebral body L2 (lumbar 2), after removing the processus spinalis from vertebra L3, and extends into the TH8 rostral region as far as where the large dorsal veins branch off laterally and caudally. The bones of the individual vertebral bodies were carefully removed in small stages by means of fine rongeurs. The musculature around TH8/9 and L1/S2 was also removed, so that immobilization clamps could be fitted later. Exposed tissue was protected against drying by applied 0.9% strength NaCI solution or thin PVC strips. […] In addition to the blood pressure, the local blood circulation was visually assessed, a pink skin color of the paws indicating normal microcirculation. […]

In another experiment the test system is NMRI mice. Kind of experiment: Phenylquinone-induced writhing test on mice. The experiment is classed as in vivo. The following applies: 10 min; mouse, i.v., phenylquinone i.p. 10 minutes after substance. The method, then:
The anti-nociceptive efficacy of the compounds according to the invention was studied on mice with the phenylquinone-induced writhing test, modified after I. C. Hendershot, J. Forsaith, J. Pharmacol. Exp. Ther. 125, 237-240 (1959). Male NMRI mice with a weight of from 25-30 g were used for this purpose. 10 minutes after intravenous administration of a compound according to the invention, groups of 10 animals per substance dose were intraperitoneally given 0.3 ml/mouse of a 0.02% strength aqueous solution of phenylquinone (phenylbenzoquinone, Sigma, Deisenhofen; production of the solution with the addition of 5% ethanol and storage in a water bath at 45° C.). The animals were placed individually in observation cages. The number of pain-induced stretching movements (so-called writhing reactions =straightening of the body with stretching of the hind extremities) were counted by means of a push-button counter 5-20 minutes after the phenylquinone administration. Animals which received physiological saline solution i.v. and phenylquinone […]. were also included as a control.
All the substances were tested in the standard dose of 10 mg/kg. The percentage inhibition (% inhibition) of the writhing reactions by a substance was calculated according to the following formula:
% inhibition=100−[WR of treated animals/ WR of control×100]
In general terms: Writhing tests count abdominal constrictions after an irritant is injected.

For another experiment, the system named is Sprague Dawley rats. Description: Mechanical hyperalgesia after paw incision on rats (paw incision model). In kind it is in vivo. The method, then: In this model, the pain due to a wound in the vicinity of an incision on the plantar side of a hind paw of the rat is studied as a model of postoperative pain (Brennan, T. J., Vandermeulen, E. P., Gebhart, G. F., Pain (1996) 493-501). For this purpose, the retraction latency after point mechanical stimulation with an electronic von Frey filament is determined. After the paw incision, a mechanical hyperalgesia develops and remains stable over several days.
Male Sprague Dawley rats (body weight 200-300 g) are used. […]
By using an electronic von Frey filament (Digital Transducer Indicator Model 1601C, IITC Inc.), the retraction threshold of the paw, expressed in grams, after point mechanical stimulation is determined. For this purpose, the retraction threshold is measured five times per measurement point at an interval of 30 sec, and the individual median is determined, with the aid of which the average of the animal population is calculated. […]
To study the primary hyperalgesia, the retraction threshold on the ipsilateral paw is determined in the immediate vicinity of the incision, and also in the same position on the contralateral paw. […]
The Mann-Whitney U test is used for the significance calculation (p<0.05). For dose-dependent effects, the ED50 value is determined with the aid of a regression analysis.

Molecules are shown by their SMILES. Counter-ions that a name gives are not always drawn. Like-named read-outs stand apart in the source and are kept apart here.

Usually ED50 stands for the midpoint of the dose-response relation. Consider `CCCC(CC)C(N)C(=O)[O-].[Na+]` (racemic), for which the “Affinity for the AMPA receptor (in words)” value with AMPA receptor was “without having any AMPA affinity”. In addition, in experiment [1] (anaesthetized rats, spinal neurons in the dorsal horn), the median effective dose (ED50) is 60 mg/kg. The “Inhibition of the AMPA response of spinal neurons (in words)” value in experiment [1] (anaesthetized rats) is “selective inhibition of the AMPA response”.
For `CCCCCC(C)C(N)C(=O)O` (racemic) [Compound 2, rac-2-amino-3-methyl-octanoic acid hydrochloride as a 1:1 D/L mixture], the ED50 with NMRI mice is 28 mg/kg.
For the compound `CCCC(CC)C(N)C(=O)O.Cl` (racemic) [Compound 7, rac-amino-3-ethyl-hexanoic acid hydrochloride as a 1:1 D/L mixture], the “% MPE, retraction threshold of the ipsilateral paw” value in the experiment with Sprague Dawley rats (464 mg/kg i.p.) is reported as 30% MPE (464 mg/kg i.p.).
For `NCC1(CC(=O)O)CCCCC1` [Gabapentin], the “Affinity for the AMPA receptor (in words)” value in the experiment on AMPA receptor is reported as “no affinity for the AMPA receptor”. The ED50 with NMRI mice came out at 38 mg/kg; in experiment [1] it was 106 mg/kg. In the experiment with Sprague Dawley rats (100 mg/kg), the “% MPE, retraction threshold of the ipsilateral paw” value is reported as 66% MPE (100 mg/kg). Further, the “Inhibition of the AMPA response of spinal neurons (in words)” value in experiment [1] (anaesthetized rats) was “dose-dependent and selective inhibition of the AMPA response”.
